Results reported in ChEMBL document CHEMBL3045770, “Design and synthesis of some thieno[2,3-c]pyridazine derivatives of expected anticancer activity” (2013).

Legend:
Type in all cases: functional
NCI-H226 = experiment: Cytotoxicity against Homo sapiens (human) NCI-H226 assessed as cell growth at 10 uM after 48 hr by SRB assay relative to control; details: NCI-H226, 48 h, read-out: Activity
SK-MEL-2 = experiment: Cytotoxicity against Homo sapiens (human) SK-MEL-2 assessed as cell growth at 10 uM after 48 hr by SRB assay relative to control; details: SK-MEL-2, 48 h, read-out: Activity
DU-145 = experiment: Cytotoxicity against Homo sapiens (human) DU145 assessed as cell growth at 10 uM after 48 hr by SRB assay relative to control; details: DU-145, 48 h, read-out: Activity
MDA-MB-468 = experiment: Cytotoxicity against Homo sapiens (human) MDA-MB-468 assessed as cell growth at 10 uM after 48 hr by SRB assay relative to control; details: MDA-MB-468, 48 h, read-out: Activity
SK-MEL-5 = experiment: Cytotoxicity against Homo sapiens (human) SK-MEL-5 assessed as cell growth at 10 uM after 48 hr by SRB assay relative to control; details: SK-MEL-5, 48 h, read-out: Activity
EKVX = experiment: Cytotoxicity against Homo sapiens (human) EKVX assessed as cell growth at 10 uM after 48 hr by SRB assay relative to control; details: read-out: Activity
MOLT-4 = experiment: Cytotoxicity against Homo sapiens (human) MOLT4 assessed as cell growth at 10 uM after 48 hr by SRB assay relative to control; details: MOLT-4, 48 h, read-out: Activity
UACC-62 = experiment: Cytotoxicity against Homo sapiens (human) UACC62 assessed as cell growth at 10 uM after 48 hr by SRB assay relative to control; details: UACC-62, 48 h, read-out: Activity
MCF7 = experiment: Cytotoxicity against Homo sapiens (human) MCF7 assessed as cell growth at 10 uM after 48 hr by SRB assay relative to control; details: MCF7, 48 h, read-out: Activity
HOP-92 = experiment: Cytotoxicity against Homo sapiens (human) HOP92 assessed as cell growth at 10 uM after 48 hr by SRB assay relative to control; details: HOP-92, 48 h, read-out: Activity
TK-10 = experiment: Cytotoxicity against Homo sapiens (human) TK10 assessed as cell growth at 10 uM after 48 hr by SRB assay relative to control; details: TK-10, 48 h, read-out: Activity
ACHN = experiment: Cytotoxicity against Homo sapiens (human) ACHN assessed as cell growth at 10 uM after 48 hr by SRB assay relative to control; details: read-out: Activity
SK-OV-3 = experiment: Cytotoxicity against Homo sapiens (human) SKOV3 assessed as cell growth at 10 uM after 48 hr by SRB assay relative to control; details: SK-OV-3, 48 h, read-out: Activity
RXF 393 = experiment: Cytotoxicity against Homo sapiens (human) RXF393 assessed as cell growth at 10 uM after 48 hr by SRB assay relative to control; details: RXF 393, 48 h, read-out: Activity
U-251 = experiment: Cytotoxicity against Homo sapiens (human) U251 assessed as cell growth at 10 uM after 48 hr by SRB assay relative to control; details: U-251, 48 h, read-out: Activity
HCT-15 = experiment: Cytotoxicity against Homo sapiens (human) HCT15 assessed as cell growth at 10 uM after 48 hr by SRB assay relative to control; details: HCT-15, 48 h, read-out: Activity
HL-60(TB) = experiment: Cytotoxicity against Homo sapiens (human) HL-60(TB) assessed as cell growth at 10 uM after 48 hr by SRB assay relative to control; details: HL-60, 48 h, read-out: Activity
COLO 205 = experiment: Cytotoxicity against Homo sapiens (human) COLO205 assessed as cell growth at 10 uM after 48 hr by SRB assay relative to control; details: COLO 205, 48 h, read-out: Activity
SF-268 = experiment: Cytotoxicity against Homo sapiens (human) SF268 assessed as cell growth at 10 uM after 48 hr by SRB assay relative to control; details: SF-268, 48 h, read-out: Activity
SW-620 = experiment: Cytotoxicity against Homo sapiens (human) SW620 assessed as cell growth at 10 uM after 48 hr by SRB assay relative to control; details: SW-620, 48 h, read-out: Activity
MDA-MB-231 = experiment: Cytotoxicity against Homo sapiens (human) MDA-MB-231 assessed as cell growth at 10 uM after 48 hr by SRB assay relative to control; details: MDA-MB-231, 48 h, read-out: Activity
HT-29 = experiment: Cytotoxicity against Homo sapiens (human) HT-29 assessed as cell growth at 10 uM after 48 hr by SRB assay relative to control; details: HT-29, 48 h, read-out: Activity
HCC 2998 = experiment: Cytotoxicity against Homo sapiens (human) HCC2998 assessed as cell growth at 10 uM after 48 hr by SRB assay relative to control; details: HCC 2998, 48 h, read-out: Activity
BT-549 = experiment: Cytotoxicity against Homo sapiens (human) BT549 assessed as cell growth at 10 uM after 48 hr by SRB assay relative to control; details: BT-549, 48 h, read-out: Activity
NCI-H460 = experiment: Cytotoxicity against Homo sapiens (human) NCI-H460 assessed as cell growth at 10 uM after 48 hr by SRB assay relative to control; details: NCI-H460, 48 h, read-out: Activity
SN12C = experiment: Cytotoxicity against Homo sapiens (human) SN12C assessed as cell growth at 10 uM after 48 hr by SRB assay relative to control; details: read-out: Activity
SNB-19 = experiment: Cytotoxicity against Homo sapiens (human) SNB19 assessed as cell growth at 10 uM after 48 hr by SRB assay relative to control; details: SNB-19, 48 h, read-out: Activity
OVCAR-3 = experiment: Cytotoxicity against Homo sapiens (human) OVCAR3 assessed as cell growth at 10 uM after 48 hr by SRB assay relative to control; details: OVCAR-3, 48 h, read-out: Activity
SK-MEL-28 = experiment: Cytotoxicity against Homo sapiens (human) SK-MEL-28 assessed as cell growth at 10 uM after 48 hr by SRB assay relative to control; details: SK-MEL-28, 48 h, read-out: Activity
[1] = Cytotoxicity against Homo sapiens (human) NCI-ADR-RES assessed as cell growth at 10 uM after 48 hr by SRB assay relative to control; details: read-out: Activity
SNB-75 = experiment: Cytotoxicity against Homo sapiens (human) SNB75 assessed as cell growth at 10 uM after 48 hr by SRB assay relative to control; details: SNB-75, 48 h, read-out: Activity
KM12 = experiment: Cytotoxicity against Homo sapiens (human) KM12 assessed as cell growth at 10 uM after 48 hr by SRB assay relative to control; details: KM12, 48 h, read-out: Activity

SMILES	growth at 10 µM (NCI-H226) [%]	growth at 10 µM (SK-MEL-2) [%]	growth at 10 µM (DU-145) [%]	growth at 10 µM (MDA-MB-468) [%]	growth at 10 µM (SK-MEL-5) [%]	growth at 10 µM (MOLT-4) [%]	growth at 10 µM (UACC-62) [%]	growth at 10 µM (MCF7) [%]	growth at 10 µM (HOP-92) [%]	growth at 10 µM (TK-10) [%]	growth at 10 µM (ACHN) [%]	growth at 10 µM (SK-OV-3) [%]	growth at 10 µM (RXF 393) [%]	growth at 10 µM (U-251) [%]	growth at 10 µM (HCT-15) [%]	growth at 10 µM (HL-60(TB)) [%]	growth at 10 µM (COLO 205) [%]	growth at 10 µM (SF-268) [%]	growth at 10 µM (SW-620) [%]	growth at 10 µM (MDA-MB-231) [%]	also measured
Oc1c(-c2nnc(SCc3ccccc3)o2)sc2nnc(-c3ccccc3)c(-c3ccccc3)c12	101	93.1	112	101	99.7	86	78.6	82.2	52.5	92.9	104	100	90	122	93.6	69.8	122	103	109	97.9	growth at 10 µM (EKVX): 122%; growth at 10 µM (HT-29): 89.8%; growth at 10 µM (HCC 2998): 96.5%; growth at 10 µM (BT-549): 107%; growth at 10 µM (NCI-H460): 111%; growth at 10 µM (SN12C): 99.5%; growth at 10 µM (SNB-19): 103%; growth at 10 µM (OVCAR-3): 126%; growth at 10 µM (SK-MEL-28): 98.9%; growth at 10 µM [1]: 93.5%; growth at 10 µM (SNB-75): 87.8%; growth at 10 µM (KM12): 107%
Oc1c(-c2nnc(-c3ccc(Cl)cc3)o2)sc2nnc(-c3ccccc3)c(-c3ccccc3)c12	67.2	87.1	71.9	44.6	53.7	35.8	38	33.5	54.5	59	54	61.9	72.3	32.6	32	52.5	67.4	55.2	35.6	77.9	growth at 10 µM (EKVX): 58.5%; growth at 10 µM (HT-29): 91.2%; growth at 10 µM (HCC 2998): 54.7%; growth at 10 µM (BT-549): 56%; growth at 10 µM (NCI-H460): 27.4%; growth at 10 µM (SNB-19): 43.9%; growth at 10 µM (OVCAR-3): 26%; growth at 10 µM (SK-MEL-28): 71.8%; growth at 10 µM [1]: 15.5%; growth at 10 µM (SNB-75): 62.8%; growth at 10 µM (KM12): 39.2%
CC1=NN(C(=O)c2sc3nnc(-c4ccccc4)c(-c4ccccc4)c3c2O)C(=O)C1	91.9	110	97.8	80.5	80.2	67.8	77.4	85.1	69.5	103	73.2	90.6	95.6	71.7	49	69.4	111	88.3	79.4	122	growth at 10 µM (EKVX): 74.3%; growth at 10 µM (HT-29): 119%; growth at 10 µM (HCC 2998): 59.7%; growth at 10 µM (BT-549): 104%; growth at 10 µM (NCI-H460): 52.2%; growth at 10 µM (SN12C): 93.8%; growth at 10 µM (SNB-19): 60.7%; growth at 10 µM (OVCAR-3): 84.7%; growth at 10 µM (SK-MEL-28): 83.5%; growth at 10 µM [1]: 16%; growth at 10 µM (SNB-75): 90%; growth at 10 µM (KM12): 71.3%
CC(=O)Oc1c(C2=NN(C(C)=O)C(c3ccc(F)cc3)O2)sc2nnc(-c3ccccc3)c(-c3ccccc3)c12 (stereo not drawn)	92.4	99.9	114	84	88.2	55.1	57.5	73.7	46.2	94.1	72	97.6	88	105	61.1	83.8	117	89.6	97.4	85.9	growth at 10 µM (EKVX): 113%; growth at 10 µM (HT-29): 102%; growth at 10 µM (HCC 2998): 82.8%; growth at 10 µM (BT-549): 65.3%; growth at 10 µM (NCI-H460): 101%; growth at 10 µM (SN12C): 80.2%; growth at 10 µM (SNB-19): 82.6%; growth at 10 µM (OVCAR-3): 96.3%; growth at 10 µM (SK-MEL-28): 82.1%; growth at 10 µM [1]: 85.3%; growth at 10 µM (SNB-75): 78.1%; growth at 10 µM (KM12): 81.7%
CC(=O)Oc1c(C2=NN(C(C)=O)C(c3ccccc3[N+](=O)[O-])O2)sc2nnc(-c3ccccc3)c(-c3ccccc3)c12 (stereo not drawn)	93	101	104	86.5	98.5	47.2	80	64	72.3	107	86.8	106	93.5	80.5	78	58.9	108	85.6	82.8	89.6	growth at 10 µM (HT-29): 87.5%; growth at 10 µM (HCC 2998): 120%; growth at 10 µM (BT-549): 89.8%; growth at 10 µM (NCI-H460): 100%; growth at 10 µM (SN12C): 76.3%; growth at 10 µM (SNB-19): 88.6%; growth at 10 µM (OVCAR-3): 93.4%; growth at 10 µM (SK-MEL-28): 97.1%; growth at 10 µM [1]: 98.4%; growth at 10 µM (SNB-75): 76.3%; growth at 10 µM (KM12): 108%
